The test system of the experiment is Solenopsis invicta workers. In words: Injection bioassay of peptides in fire ant workers, adult mortality. In kind it is in vivo. The following applies: peptide with Cys-Cys S-S bond in insect saline, injected into fire ant workers. How it is done: Peptides identified herein are injected into the hemocoel of Solenopsis invicta workers using a Nanoliter 2000™ System (World Precision Instruments) with pulled borosilicate needles.
To determine the negative impact these peptides may have against fire ants, synthesis of potential candidates of small peptides with Cysteine-Cysteine S—S bond at the N- and C-terminal ends of SEQ ID NO: 2 and SEQ ID NO: 14. Synthesis of the peptides is described above. These peptides were dissolved in an insect saline (composition in mM: NaCl 126, KCl 5.4, NaH2PO4 0.17 and KH2PO4 0.22, pH 7.4) or the saline only control were injected into fire ant workers and phenotypic effects monitored.
To determine the negative impact these peptides may have against fire ants, synthesis of potential candidates of small peptides with Cysteine-Cysteine S—S bond at the N- and C-terminal ends of SEQ ID NO:2-SEQ ID NO:14. Synthesis of the peptides is described above. These peptides were dissolved in an insect saline (composition in mM: NaCl 126, KCl 5.4, NaH2PO4 0.17 and KH2PO4 0.22, pH 7.4) or the saline only control were injected into fire ant workers and phenotypic effects monitored.
On to “CLKIGSHFC (Synthetically generated peptide) [SEQ ID NO: 3, synthetically generated peptide, loop-constrained by flanking cysteines]”, for which the “adult mortality compared to the saline control” value is listed as “significant increase in adult mortality”.

On to “CRGATPMSC (Synthetically generated peptide) [SEQ ID NO: 12, synthetically generated peptide, loop-constrained by flanking cysteines]”, for which the “adult mortality compared to the saline control” value is on record as “significant increase in adult mortality”.

With “CQKIGSHFC (Synthetically generated peptide) [SEQ ID NO: 2, synthetically generated peptide, loop-constrained by flanking cysteines]”, the “adult mortality compared to the saline control” value is reported as “increase in adult mortality”.

As for “CGSHFC (Synthetically generated peptide) [SEQ ID NO: 14, short synthetically generated peptide]”, the “adult mortality compared to the saline control” value is “did not affect adult mortality”.

In the case of “CMARYMSAC (Synthetically generated peptide) [SEQ ID NO: 11, synthetically generated peptide, loop-constrained by flanking cysteines]”, the “adult mortality compared to the saline control” value was “significant increase in adult mortality”.

For “CIQQGSHFC (Synthetically generated peptide) [SEQ ID NO: 4, synthetically generated peptide, loop-constrained by flanking cysteines]”, the “adult mortality compared to the saline control” value is reported as “significant increase in adult mortality”.

The values above are taken from US10017538B2, “Bioactive peptides having insecticide activity” (The United States of America, as represented by the …, priority 2016, dated 2018).
